The results in this text go back to publication PMC4926365, “Expression and Characterization of a Novel Glycerophosphodiester Phosphodiesterase from Pyrococcus furiosus DSM 3638 That Possesses Lysophospholipase D Activity” (International Journal of Molecular Sciences, 2016).

This assay has as its target T1, pfGDPD (Pyrococcus furiosus, UniProt Q8TZI9).
T1 construct: gene PF2003; full length 253 aa, no signal peptide; synthetic gene in pET28a, N- and C-terminal His6 tags kept; E. coli SHuffle T7; Ni-NTA; 34,059 Da
T1 sequence (Q8TZI9 1-253): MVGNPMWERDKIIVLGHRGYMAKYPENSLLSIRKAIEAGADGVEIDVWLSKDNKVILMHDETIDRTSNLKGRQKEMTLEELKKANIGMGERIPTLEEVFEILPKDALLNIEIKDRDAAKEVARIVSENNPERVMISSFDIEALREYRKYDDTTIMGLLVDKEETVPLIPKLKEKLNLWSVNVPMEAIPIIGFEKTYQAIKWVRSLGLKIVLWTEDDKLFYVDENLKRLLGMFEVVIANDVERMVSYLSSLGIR
As to the kind of experiment: colorimetric p-nitrophenol release. The format is biochemical. Conditions: Mn2+ (best at 5 mM), 50 mM Tris-HCl pH 8.5, 55 °C.

Turning to `O=[N+]([O-])c1ccc(OP(=O)(O)Oc2ccc([N+](=O)[O-])cc2)cc1` [bis(p-nitrophenyl) phosphate], the colorimetric p-nitrophenol release entry was “The optimal temperature of recombinant pfGDPD was determined using BpNPP as substrate”.
